Measured values reported in PubChem BioAssay (NCI).
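Growth conditions: 96-well plates. Treatment: test compound, 48 hours, 5 concentrations. Analysis: linear interpolation between bracketing concentrations; unreached endpoints set to highest concentration. TGI: concentration producing complete growth inhibition.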

What was measured:
Test in all cases: NCI tumour cell line growth inhibition, 48 h
A498 renal = tested on: A498 renal
CCRF-CEM leukemia = tested on: CCRF-CEM leukemia
COLO 205 colon = tested on: COLO 205 colon
HCC-2998 colon = tested on: HCC-2998 colon
KM12 colon = tested on: KM12 colon
MDA-N = tested on: MDA-N
MOLT-4 leukemia = tested on: MOLT-4 leukemia
NCI-H23 lung = tested on: NCI-H23 lung
OVCAR-3 ovarian = tested on: OVCAR-3 ovarian
RXF 393 renal = tested on: RXF 393 renal
SK-OV-3 ovarian = tested on: SK-OV-3 ovarian
SN12C renal = tested on: SN12C renal
SNB-75 CNS = tested on: SNB-75 CNS
U251 CNS = tested on: U251 CNS
UACC-62 melanoma = tested on: UACC-62 melanoma
A549 NSCLC = tested on: A549 NSCLC
PC-3 prostate = tested on: PC-3 prostate

Measured: TGI

CC(=O)Oc1c2ccsc2c(OC(C)=O)c2ccsc12
1.05 µM: NCI-H23 lung
2.45 µM: U251 CNS
3.3 µM: UACC-62 melanoma
3.45 µM: HCC-2998 colon
3.38 µM: COLO 205 colon
9.93 µM: SK-OV-3 ovarian
4.47 µM: MOLT-4 leukemia
3.29 µM: A498 renal
2.03 µM: SN12C renal
> 21.4 µM: CCRF-CEM leukemia
0.753 µM: SNB-75 CNS
6.54 µM: OVCAR-3 ovarian
3.24 µM: KM12 colon
0.501 µM: RXF 393 renal
0.25 µM: MDA-N

CO[C@@]12C[C@@H](C)[C@]34O[C@H]3C[C@]3(C)O[C@]43CC1=C(C)C(=O)O2
> 100 µM: A498 renal | A549 NSCLC | COLO 205 colon | HCC-2998 colon | KM12 colon | MDA-N | NCI-H23 lung | OVCAR-3 ovarian | PC-3 prostate | SK-OV-3 ovarian | SN12C renal | U251 CNS | UACC-62 melanoma

COc1cc2c(oc(=O)c3cc4cc([Si](C)(C)C)oc4c(OC)c32)c2cccc(O)c12
> 100 µM: A498 renal | A549 NSCLC | CCRF-CEM leukemia | COLO 205 colon | HCC-2998 colon | KM12 colon | MOLT-4 leukemia | NCI-H23 lung | OVCAR-3 ovarian | RXF 393 renal | SK-OV-3 ovarian | SN12C renal | SNB-75 CNS | U251 CNS | UACC-62 melanoma

Cn1c(=O)cc2[nH]c3ccccc3n2c1=O
> 100 µM: A498 renal | A549 NSCLC | CCRF-CEM leukemia | HCC-2998 colon | KM12 colon | MOLT-4 leukemia | NCI-H23 lung | OVCAR-3 ovarian | SK-OV-3 ovarian | SNB-75 CNS | UACC-62 melanoma
31.2 µM: U251 CNS
29.9 µM: COLO 205 colon
64.2 µM: RXF 393 renal

ClCC[N-]CC[N-]CCCl.ClCC[N-]CC[N-]CCCl.[O-][Cl+3]([O-])([O-])O.[Zn+2]
> 67.3 µM: U251 CNS
> 60.3 µM: NCI-H23 lung
> 59.1 µM: RXF 393 renal
32.1 µM: OVCAR-3 ovarian
66.9 µM: UACC-62 melanoma
> 72.2 µM: COLO 205 colon
> 100 µM: A498 renal | A549 NSCLC | HCC-2998 colon | KM12 colon | MOLT-4 leukemia | SK-OV-3 ovarian | SN12C renal
44.1 µM: SNB-75 CNS
82.3 µM: CCRF-CEM leukemia

COC(=O)c1c(-c2cc(OC)c(OC)c(OC)c2)oc2ccccc2c1=O
> 100 µM: A498 renal | A549 NSCLC | CCRF-CEM leukemia | COLO 205 colon | HCC-2998 colon | KM12 colon | MOLT-4 leukemia | NCI-H23 lung | OVCAR-3 ovarian | RXF 393 renal | SK-OV-3 ovarian | SN12C renal | SNB-75 CNS | U251 CNS | UACC-62 melanoma

C=CCN1C[C@H](C)N([C@H](c2ccc(C(=O)N(CC)CC)cc2)c2cccc(OC)c2)C[C@H]1C
50.5 µM: OVCAR-3 ovarian
> 100 µM: A498 renal | A549 NSCLC | KM12 colon | MDA-N | NCI-H23 lung | PC-3 prostate | SK-OV-3 ovarian | SN12C renal | U251 CNS | UACC-62 melanoma
99.5 µM: MOLT-4 leukemia
38.7 µM: COLO 205 colon

CC(C)OC(=O)[C@H]1ON2O[C@H](O[C@@H]3CCCC[C@H]3c3ccccc3)C([Si](C)(C)c3ccccc3)[C@H]3OC(=O)[C@@H]1C32 (stereo partly specified)
> 100 µM: A498 renal | A549 NSCLC | CCRF-CEM leukemia | COLO 205 colon | HCC-2998 colon | KM12 colon | MOLT-4 leukemia | NCI-H23 lung | OVCAR-3 ovarian | PC-3 prostate | RXF 393 renal | SK-OV-3 ovarian | SN12C renal | SNB-75 CNS | U251 CNS | UACC-62 melanoma

C=CCCCN1CCCC(C)C1=S (stereo unspecified)
> 100 µM: A498 renal | A549 NSCLC | CCRF-CEM leukemia | COLO 205 colon | HCC-2998 colon | KM12 colon | MOLT-4 leukemia | NCI-H23 lung | OVCAR-3 ovarian | RXF 393 renal | SK-OV-3 ovarian | SNB-75 CNS | U251 CNS | UACC-62 melanoma

COCN(C)c1nc(N(C)C)nc(N(C)C)n1
> 100 µM: A498 renal | A549 NSCLC | CCRF-CEM leukemia | COLO 205 colon | HCC-2998 colon | KM12 colon | MOLT-4 leukemia | NCI-H23 lung | OVCAR-3 ovarian | RXF 393 renal | SK-OV-3 ovarian | SN12C renal | SNB-75 CNS | U251 CNS | UACC-62 melanoma

COc1ccc(OC)c(NC(=O)C(=O)CC(=O)c2sc(-n3nc(-c4ccccc4)cc3-c3ccccc3)nc2C)c1
> 100 µM: A498 renal | A549 NSCLC | CCRF-CEM leukemia | COLO 205 colon | HCC-2998 colon | KM12 colon | MOLT-4 leukemia | NCI-H23 lung | OVCAR-3 ovarian | RXF 393 renal | SK-OV-3 ovarian | SN12C renal | SNB-75 CNS | U251 CNS | UACC-62 melanoma

CCN(CC)C(=S)SCC(=O)Nc1nc2c(s1)CCCC2
> 100 µM: A498 renal | A549 NSCLC | CCRF-CEM leukemia | COLO 205 colon | HCC-2998 colon | KM12 colon | MOLT-4 leukemia | NCI-H23 lung | SK-OV-3 ovarian | SN12C renal | SNB-75 CNS | U251 CNS

CC(C)(C)[C@H]1CO[C@]2(c3ccccc3)[C@@H]3C[C@@H]3C(=O)N12
> 100 µM: A549 NSCLC | COLO 205 colon | HCC-2998 colon | KM12 colon | NCI-H23 lung | OVCAR-3 ovarian | RXF 393 renal | SK-OV-3 ovarian | SN12C renal | SNB-75 CNS | U251 CNS | UACC-62 melanoma

O=C(CSCC(=O)N/N=C\c1ccc(O)c(O)c1O)N/N=C\c1ccc(O)c(O)c1O
46.1 µM: HCC-2998 colon
17.6 µM: OVCAR-3 ovarian
59 µM: SN12C renal
> 100 µM: A498 renal | COLO 205 colon | RXF 393 renal | SK-OV-3 ovarian
21.2 µM: SNB-75 CNS
19.2 µM: U251 CNS
3.65 µM: NCI-H23 lung
4.75 µM: CCRF-CEM leukemia
11.9 µM: MOLT-4 leukemia
41.8 µM: UACC-62 melanoma
37.1 µM: KM12 colon
53.7 µM: A549 NSCLC

O=CC1C(Cl)=Nc2nc3ccccc3n2C1c1ccccc1 (stereo unspecified)
23 µM: A498 renal
34.8 µM: HCC-2998 colon
43.2 µM: OVCAR-3 ovarian
51.4 µM: KM12 colon
56.6 µM: NCI-H23 lung
44.8 µM: SN12C renal
58.9 µM: COLO 205 colon
50 µM: UACC-62 melanoma
40.7 µM: PC-3 prostate
30.9 µM: RXF 393 renal
63.1 µM: CCRF-CEM leukemia
33.7 µM: SNB-75 CNS | U251 CNS
76.6 µM: A549 NSCLC

Cc1cc(S(=O)(=O)Nc2nnc3ccccn23)c(S)cc1Cl
> 100 µM: A498 renal | A549 NSCLC | COLO 205 colon | HCC-2998 colon | KM12 colon | MDA-N | MOLT-4 leukemia | NCI-H23 lung | OVCAR-3 ovarian | PC-3 prostate | SN12C renal | U251 CNS | UACC-62 melanoma
